# Results taken from US20110039762A1, “TARGETED ANTIMICROBIAL MOIETIES” (C3 JIAN, INC., priority 2009, published 2011).
# “Also recorded” adds a separate entry of the source.
# Tested on: microorganisms (e.g., bacteria, yeasts, fungi)
# Assay: Targeting peptide binding to target microorganisms (Table 3)
# Conditions: peptide binding in aqueous buffers varied by peptide solubility; preferably 1x PBS
row,Substance,Target(s) (microorganisms bound by the targeting peptide)
1,PF-794 (NLYFENQGN; Peptide with targeting and/or antimicrobial activity),S. mutans
2,PF-795 (ALHKSGIQVIADWVPDQIYN; Peptide with targeting and/or antimicrobial activity),S. mutans
3,PF-796 (YTQSNIPTAYALMLSNKDSI; Peptide with targeting and/or antimicrobial activity),S. mutans
4,PF-797 (WYYFDNNGYM; Peptide with targeting and/or antimicrobial activity),S. mutans
5,PF-798 (ALHSKGIKVMADWVPDQMYA; Peptide with targeting and/or antimicrobial activity),S. mutans
6,PF-799 (YTHYNTALSYALLLTNKSSVP; Peptide with targeting and/or antimicrobial activity),S. mutans
7,PF-800 (WYYFDNNGYM; Peptide with targeting and/or antimicrobial activity),S. mutans
8,PF-C003 (FCSVDHDVITIAADHVKQGAEA; Peptide with targeting and/or antimicrobial activity),A. naeslundii; also recorded: P. gingivalis; also recorded: S. mutans
9,PF-C008 (AQPRRTWLVNFGEVPSPGLTNDGMPDH; Peptide with targeting and/or antimicrobial activity),A. naeslundii
10,PF-C034 (HPMPITVRSRKPGPLTAPSEH; Peptide with targeting and/or antimicrobial activity),S. mutans; also recorded: E. coli
11,PF-C045 (FREGMGWPLSNEGSPTAPLPKHRNQV; Peptide with targeting and/or antimicrobial activity),A. naeslundii; also recorded: T. denticola
12,PF-C050 (QGLARPVLRRIPL; Peptide with targeting and/or antimicrobial activity),A. naeslundii; also recorded: S. mutans
13,PF-C063 (SHFRKGD; Peptide with targeting and/or antimicrobial activity),A. naeslundii; also recorded: F. nucleatum; also recorded: S. mutans
14,PF-C068 (LNLFASI; Peptide with targeting and/or antimicrobial activity),A. naeslundii; also recorded: F. nucleatum; also recorded: S. mutans
15,PF-C080 (INIPGLF; Peptide with targeting and/or antimicrobial activity),A. naeslundii; also recorded: F. nucleatum; also recorded: S. mutans
16,PF-C093 (EKLGTMV; Peptide with targeting and/or antimicrobial activity),A. naeslundii; also recorded: F. nucleatum; also recorded: S. mutans
17,PF-C134 (NELMKYPATLTATATTPGIKYSHLCSVCL; Peptide with targeting and/or antimicrobial activity),A. naeslundii; also recorded: F. nucleatum; also recorded: P. gingivalis; also recorded: S. mutans; also recorded: T. denticola
18,PF-C160 (AASGFTYCASNGVWHPY; Peptide with targeting and/or antimicrobial activity),F. nucleatum
19,PF-C259 (AEIQPHCLSVL; Peptide with targeting and/or antimicrobial activity),F. nucleatum; also recorded: S. mutans
20,PF-C271 (FFPSYYSIIITYF; Peptide with targeting and/or antimicrobial activity),A. naeslundii; also recorded: F. nucleatum; also recorded: P. gingivalis; also recorded: S. mutans; also recorded: T. denticola
